In ChEMBL document CHEMBL4311991, “Design, synthesis, and biological evaluation of 1-substituted -2-aryl imidazoles targeting tubulin polymerization as potential anticancer agents” (Eur J Med Chem, 2019):
In brackets after ≈: the same amount, converted by molar mass. Activity calls are given as the source filed them. The rule behind the calls is not given here.

Tests used:
[1] = tested on: MDA-MB-468; test: Antiproliferative activity against human MDA-MB-468 cells assessed as reduction in cell viability after 72 hrs by MTT assay; format: functional, cell-based; conditions: MDA-MB-468, 72 h
[2] = tested on: MDA-MB-231; test: Antiproliferative activity against human MDA-MB-231 cells assessed as reduction in cell viability after 72 hrs by MTT assay; format: functional, cell-based; conditions: MDA-MB-231, 72 h
[3] = tested on: T47D; test: Antiproliferative activity against human T47D cells assessed as reduction in cell viability after 72 hrs by MTT assay; format: functional, cell-based
[4] = tested on: HCT-15; test: Antiproliferative activity against human HCT15 cells assessed as reduction in cell viability after 72 hrs by MTT assay; format: functional, cell-based; conditions: HCT-15, 72 h
[5] = tested on: HT-29; test: Antiproliferative activity against human HT-29 cells assessed as reduction in cell viability after 72 hrs by MTT assay; format: functional, cell-based; conditions: HT-29, 72 h
[6] = tested on: HeLa; test: Antiproliferative activity against human HeLa cells assessed as reduction in cell viability after 72 hrs by MTT assay; format: functional, cell-based
[7] = tested on: HUVEC; test: Cytotoxicity against HUVEC assessed as reduction in cell viability after 72 hrs by MTT assay; format: cell-based; conditions: Homo sapiens
[8] = molecular target: T1, Tubulin (Sus scrofa) (UniProt P02554+P02550); test: (§1) Inhibition of pig brain tubulin polymerization in presence of GTP by spectrophotometric analysis
[9] = molecular target: Tubulin (Sus scrofa, UniProt P02554+P02550); test: as §1
[10] = molecular target: T1, Tubulin (Sus scrofa); test: Inhibition of pig brain tubulin polymerization at 3 to 6 uM in presence of GTP by spectrophotometric analysis relative to control
[11] = organism: Mus musculus; test: Inhibition of tubulin polymerization in mouse B16F10 cells assessed as disruption of microtubule network at 400 nM incubated for 6 hrs by DAPI staining based confocal microscopy; format: cell-based
[12] = tested on: MDA-MB-468; test: Induction of cell cycle arrest in human MDA-MB-468 cells assessed as accumulation of cells at G2/M phase at IC50 concentration by propidium iodide staining-based flow cytometric analysis; format: functional; conditions: TDE = time-dependent effect
[13] = tested on: MDA-MB-468; test: Induction of apoptosis in human MDA-MB-468 cells assessed as viable cells at 100 nM after 24 hrs by Annexin-FITC/propidium iodide staining based flow cytometry (reference value: 96.8%); format: functional; conditions: MDA-MB-468, 24 h, read-out: Activity
[14] = tested on: MDA-MB-468; test: Induction of apoptosis in human MDA-MB-468 cells assessed as early apoptotic cells at 100 nM after 24 hrs by Annexin-FITC/propidium iodide staining based flow cytometry (reference value: 0.35 to 1.25%); format: functional
[15] = tested on: MDA-MB-468; test: Induction of apoptosis in human MDA-MB-468 cells assessed as late apoptotic cells at 100 nM after 24 hrs by Annexin-FITC/propidium iodide staining based flow cytometry (reference value: 1.03 to 1.59%); format: functional
[16] = tested on: MDA-MB-468; test: Induction of apoptosis in human MDA-MB-468 cells assessed as necrotic cells at 100 nM after 24 hrs by Annexin-FITC/propidium iodide staining based flow cytometry (reference value: 0.97 to 1.29%); format: functional
[17] = tested on: MDA-MB-468; test: Induction of apoptosis in human MDA-MB-468 cells assessed as viable cells at 100 nM after 48 hrs by Annexin-FITC/propidium iodide staining based flow cytometry (reference value: 96.8%); format: functional; conditions: MDA-MB-468, 48 h, read-out: Activity
[18] = tested on: MDA-MB-468; test: Induction of apoptosis in human MDA-MB-468 cells assessed as early apoptotic cells at 100 nM after 48 hrs by Annexin-FITC/propidium iodide staining based flow cytometry (reference value: 0.35 to 1.25%); format: functional
[19] = tested on: MDA-MB-468; test: Induction of apoptosis in human MDA-MB-468 cells assessed as late apoptotic cells at 100 nM after 48 hrs by Annexin-FITC/propidium iodide staining based flow cytometry (reference value: 1.03 to 1.59%); format: functional
[20] = tested on: MDA-MB-468; test: Induction of apoptosis in human MDA-MB-468 cells assessed as necrotic cells at 100 nM after 48 hrs by Annexin-FITC/propidium iodide staining based flow cytometry (reference value: 0.97 to 1.29%); format: functional
[21] = tested on: MDA-MB-468; test: Induction of apoptosis in human MDA-MB-468 cells assessed as viable cells at 100 nM after 72 hrs by Annexin-FITC/propidium iodide staining based flow cytometry (reference value: 96.8%); format: functional; conditions: MDA-MB-468, 72 h, read-out: Activity
[22] = tested on: MDA-MB-468; test: Induction of apoptosis in human MDA-MB-468 cells assessed as early apoptotic cells at 100 nM after 72 hrs by Annexin-FITC/propidium iodide staining based flow cytometry (reference value: 0.35 to 1.25%); format: functional
[23] = tested on: MDA-MB-468; test: Induction of apoptosis in human MDA-MB-468 cells assessed as late apoptotic cells at 100 nM after 72 hrs by Annexin-FITC/propidium iodide staining based flow cytometry (reference value: 1.03 to 1.59%); format: functional
[24] = tested on: MDA-MB-468; test: Induction of apoptosis in human MDA-MB-468 cells assessed as necrotic cells at 100 nM after 72 hrs by Annexin-FITC/propidium iodide staining based flow cytometry (reference value: 0.97 to 1.29%); format: functional
[25] = Retention time of the compound using acetonitrile:water at ratio of 50:50 as mobile phase by reverse-phase HPLC analysis; format: physicochemical; conditions: buffer
[26] = Aqueous solubility of the compound at 1 mg/ml after 24 hrs by shake flask method based HPLC analysis; format: physicochemical
[27] = 1-Octanol/water partition coefficient, log P of compound at 1 mg after 1 hr by HPLC analysis; format: physicochemical
[28] = tested on: MDA-MB-468; test: Antitumor activity against human MDA-MB-468 cells xenografted in nude mouse assessed as tumour growth inhibition at 30 mg/kg, ip administered every other day for 21 days relative to control; format: functional; conditions: MDA-MB-468, ip, 504 h, read-out: TGI
[29] = tested on: MDA-MB-468; test: Antitumor activity against human MDA-MB-468 cells xenografted in nude mouse assessed as tumour growth inhibition at 60 mg/kg, ip administered every other day for 21 days relative to control; format: functional; conditions: MDA-MB-468, ip, 504 h, read-out: TGI
[30] = Toxicity in nude mouse xenografted with human MDA-MB-468 cells assessed as effect on body weight at 30 to 60 mg/kg, ip administered every other day for 21 days; format: organism-based; conditions: in vivo, 504 h
[31] = Ratio of compound aqueous solubility to CA-4 aqueous solubility at 1 mg/ml after 24 hrs by shake flask method based HPLC analysis; format: physicochemical; conditions: buffer
[32] = organism: Mus musculus; test: Inhibition of tubulin polymerization in mouse B16F10 cells assessed as disruption of microtubule network at 200 nM incubated for 6 hrs by DAPI staining based confocal microscopy; format: cell-based

T1 sequence (P02550 whole entry, looked up): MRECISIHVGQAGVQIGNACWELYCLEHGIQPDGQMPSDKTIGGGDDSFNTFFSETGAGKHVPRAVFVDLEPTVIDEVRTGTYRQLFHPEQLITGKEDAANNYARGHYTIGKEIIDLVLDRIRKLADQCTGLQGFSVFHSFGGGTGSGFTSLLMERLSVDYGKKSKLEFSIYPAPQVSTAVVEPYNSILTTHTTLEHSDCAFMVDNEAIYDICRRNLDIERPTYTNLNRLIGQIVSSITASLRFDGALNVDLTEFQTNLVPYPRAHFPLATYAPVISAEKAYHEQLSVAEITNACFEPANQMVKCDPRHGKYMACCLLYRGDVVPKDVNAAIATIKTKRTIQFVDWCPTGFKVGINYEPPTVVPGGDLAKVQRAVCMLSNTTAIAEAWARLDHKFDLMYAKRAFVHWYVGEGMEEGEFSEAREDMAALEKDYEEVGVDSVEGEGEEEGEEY
T1 sequence (P02554 whole entry, looked up): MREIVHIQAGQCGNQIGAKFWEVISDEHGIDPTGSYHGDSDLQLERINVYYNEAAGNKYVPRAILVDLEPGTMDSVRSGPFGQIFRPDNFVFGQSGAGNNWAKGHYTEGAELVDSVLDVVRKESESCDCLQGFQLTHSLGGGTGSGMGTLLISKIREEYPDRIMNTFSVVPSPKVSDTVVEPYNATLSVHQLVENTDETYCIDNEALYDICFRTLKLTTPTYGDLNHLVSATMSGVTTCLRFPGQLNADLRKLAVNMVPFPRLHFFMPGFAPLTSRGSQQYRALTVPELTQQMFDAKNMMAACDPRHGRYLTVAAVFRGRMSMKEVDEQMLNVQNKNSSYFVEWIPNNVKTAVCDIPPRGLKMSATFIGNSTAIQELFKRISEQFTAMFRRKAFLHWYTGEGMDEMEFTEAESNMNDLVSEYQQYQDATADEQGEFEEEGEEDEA

Row | Structure (SMILES) | IC50 [1] | IC50 [2] | IC50 [3] | IC50 [4] | IC50 [5] | IC50 [6] | IC50 [7] | Activity [12] | viability at 0.1 µM [13] | Activity [14] | Activity [15] | Activity [16] | viability at 0.1 µM [17] | Activity [18] | Activity [19] | Activity [20] | viability at 0.1 µM [21] | Activity [22] | Activity [23] | Activity [24] | also measured
1 | COc1ccc(-n2ccnc2-c2cc(OC)c(OC)c(OC)c2)cc1N | 90 nM | 1040 nM | 500 nM | 100 nM | 200 nM | 80 nM | 58500 nM | Tde | 94.5% | 0.38% | 3.56% | 1.51% | 79.6% | 1.18% | 15% | 4.19% | 72.3% | 1.53% | 22.9% | 3.27% | inhibition [8]: Dose-dependent effect; IC50 [9]: 400 nM; inhibition [10]: 100%; inhibition [11]: Active; Retention_time [25]: 5 min; solubility thermodynamic at 24 h [26]: 36.7 µg/mL (≈ 103 µM); logP at 1 h [27]: 1.77; inhibition in vivo at 30 mg/kg [28]: 48%; inhibition in vivo at 60 mg/kg [29]: 77%; Activity [30]: Non-Toxic; Ratio [31]: 13
2 | COc1ccc(/C=C\c2cc(OC)c(OC)c(OC)c2)cc1O [COMBRETASTATIN A4] | 6.5 nM | 13.5 nM | 14.6 nM | 3.2 nM | 30.5 nM | 9.2 nM | > 100000 nM | Tde | 79.2% | 1.44% | 15.7% | 3.67% | 60% | 0.84% | 31.9% | 7.2% | 33.4% | 1.84% | 55.3% | 9.4% | inhibition [32]: Active; Retention_time [25]: 12.5 min; inhibition in vivo at 60 mg/kg [29]: 87.5%
